The text below walks through data of patent US20240043427A1 (Gilead Sciences, Inc., priority 2020, published 2024).

Each structure is given as a SMILES string.

CD73, sequence (P21589 27-574): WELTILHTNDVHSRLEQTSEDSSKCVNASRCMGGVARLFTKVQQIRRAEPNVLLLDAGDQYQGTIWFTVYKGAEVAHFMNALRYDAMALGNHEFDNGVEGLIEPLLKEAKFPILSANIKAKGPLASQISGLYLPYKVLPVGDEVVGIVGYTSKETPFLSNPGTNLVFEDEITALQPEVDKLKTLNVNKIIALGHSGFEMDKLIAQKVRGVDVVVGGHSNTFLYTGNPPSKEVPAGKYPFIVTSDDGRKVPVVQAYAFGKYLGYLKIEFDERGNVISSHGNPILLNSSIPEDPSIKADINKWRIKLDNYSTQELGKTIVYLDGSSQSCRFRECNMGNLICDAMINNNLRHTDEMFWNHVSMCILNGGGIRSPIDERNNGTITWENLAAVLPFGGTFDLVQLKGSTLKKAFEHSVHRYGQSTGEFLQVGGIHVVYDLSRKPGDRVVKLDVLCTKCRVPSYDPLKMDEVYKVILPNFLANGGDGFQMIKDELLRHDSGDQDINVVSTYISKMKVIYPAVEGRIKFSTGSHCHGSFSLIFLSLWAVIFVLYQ

The assay has as its target CD73 (Homo sapiens (Human), UniProt P21589). The class given is biochemical. As to conditions: 1 mM NaH2PO4 in enzyme buffer, CD73 0.3 nM, AMP 15 uM.
Protocol: Compound serial dilutions were pre-spotted into Thermo Nunc assay plate. 50 uL CD73 enzyme buffer (CD73 purchased from R&D system=0.6 nM, 25 mM Tris, pH 7.4, 5 mM MgCl2, 1 mM NaH2PO4) was added into the assay plate and incubate for 15 mins. […] After incubation for 60 mins, the supernatant (20 uL) was transferred into 384-well NUNC plate pre-filled with 60 uL Quench buffer (80% organic and 20% water+0.1% FA) with internal standard. The plate was spun down at 4500 rpm for 20 mins, then 20 uL of supernatant was transferred to another Nunc plate prefilled with 80 uL of water. The samples were analyzed using Rapid fire.
What is called IC50 is the midpoint of a concentration-inhibition curve. Read a high IC50 as a need for much substance. `O=c1[nH]cc(-c2cc([C@H]3C[C@@H]3c3cc4c(cn3)cnn4CC(F)(F)F)c3ncc(F)n3n2)c(=O)[nH]1` [Example 611, 5-(3-fluoro-8-((1S,2S)-2-(1-(2,2,2-trifluoroethyl)-1H-pyrazolo[4,3-c]pyridin-6-yl)cyclopropyl)imidazo[1,2-b]pyridazin-6-yl)pyrimidine-2,4(1H,3H)-dione] showed an IC50 of 0.4 nM.

For the molecule `O=c1[nH]cc(-c2cc([C@H]3C[C@@H]3c3cc(OCC(F)(F)F)c4ncccc4c3)c3nccn3n2)c(=O)[nH]1` (racemic) [Example 732, 5-(8-((1S,2S)-2-(8-(2,2,2-trifluoroethoxy)quinolin-6-yl)cyclopropyl)imidazo[1,2-b]pyridazin-6-yl)pyrimidine-2,4(1H,3H)-dione], it took 2.66 nM to reach half-maximal inhibition (IC50).

On to `O=c1[nH]cc(-c2cc([C@H]3C[C@@H]3c3ccc(OC(F)(F)F)cn3)c3nccn3n2)c(=O)[nH]1` [Example 373, 5-(8-((1S,2S)-2-(5-(trifluoromethoxy)pyridin-2-yl)cyclopropyl)imidazo[1,2-b]pyridazin-6-yl)pyrimidine-2,4(1H,3H)-dione], for which the IC50 was 2.56 nM.

In turn, `O=C1N(CC(F)(F)F)c2cc([C@H]3C[C@@H]3c3cc(-c4c[nH]c(=O)[nH]c4=O)nn4ccnc34)c(F)cc2C12CC2` (racemic) [Example 748, 5-(8-((1S,2S)-2-(5′-fluoro-2′-oxo-1′-(2,2,2-trifluoroethyl)spiro[cyclopropane-1,3′-indolin]-6′-yl)cyclopropyl)imidazo[1,2-b]pyridazin-6-yl)pyrimidine-2,4(1H,3H)-dione] gave an IC50 of 2.5 nM.

Regarding `CNC(=O)c1cccc([C@H]2C[C@@H]2c2cc(-c3c[nH]c(=O)[nH]c3=O)nn3ccnc23)c1` (racemic) [Example 286, 3-((1S,2S)-2-(6-(2,4-dioxo-1,2,3,4-tetrahydropyrimidin-5-yl)imidazo[1,2-b]pyridazin-8-yl)cyclopropyl)-N-methylbenzamide], the IC50 was 1.19 nM.

In turn, `O=c1[nH]cc(-c2cc([C@H]3C[C@@H]3c3ccc(OC(F)(F)F)nc3)c3nccn3n2)c(=O)[nH]1` (racemic) [Example 376, 5-(8-((1S,2S)-2-(6-(trifluoromethoxy)pyridin-3-yl)cyclopropyl)imidazo[1,2-b]pyridazin-6-yl)pyrimidine-2,4(1H,3H)-dione] returned an IC50 of 8.07 nM.

`O=C(c1cccc([C@H]2C[C@@H]2c2cc(-c3c[nH]c(=O)[nH]c3=O)nn3ccnc23)c1)N1C[C@@H](F)[C@H](F)C1` (racemic) [Example 300, 5-(8-((1S,2S)-2-(3-((3R,4R)-3,4-difluoropyrrolidine-1-carbonyl)phenyl)cyclopropyl)imidazo[1,2-b]pyridazin-6-yl)pyrimidine-2,4(1H,3H)-dione] showed an IC50 of 1.8 nM.

`O=c1[nH]cc(-c2cc([C@H]3C[C@@H]3c3ccc(Cl)cc3)c3ncc(F)n3n2)c(=O)[nH]1` (racemic) [Example 182, 5-(8-((1S,2S)-2-(4-chlorophenyl)cyclopropyl)-3-fluoroimidazo[1,2-b]pyridazin-6-yl)pyrimidine-2,4(1H,3H)-dione] gave an IC50 of 1.24 nM.

`O=c1[nH]cc(-c2cc([C@H]3C[C@@H]3c3ccc(C(F)(F)F)cc3)c3ncc(F)n3n2)c(=O)[nH]1` (racemic) [Example 183, 5-(3-fluoro-8-((1S,2S)-2-(4-(trifluoromethyl)phenyl)cyclopropyl)imidazo[1,2-b]pyridazin-6-yl)pyrimidine-2,4(1H,3H)-dione]: the midpoint of inhibition, the IC50, lay at 2.52 nM.

Take `N#Cc1cc([C@H]2C[C@@H]2c2cc(-c3c[nH]c(=O)[nH]c3=O)nn3ccnc23)ccc1C(F)(F)F` (racemic) [Example 412, 5-((1S,2S)-2-(6-(2,4-dioxo-1,2,3,4-tetrahydropyrimidin-5-yl)imidazo[1,2-b]pyridazin-8-yl)cyclopropyl)-2-(trifluoromethyl)benzonitrile]: the IC50 was found to be 6 nM.

In the case of `O=c1[nH]cc(-c2cc([C@H]3C[C@@H]3c3ccc(OC(F)(F)F)cn3)c3ncc(F)n3n2)c(=O)[nH]1` (racemic) [Example 374, 5-(3-fluoro-8-((1S,2S)-2-(5-(trifluoromethoxy)pyridin-2-yl)cyclopropyl)imidazo[1,2-b]pyridazin-6-yl)pyrimidine-2,4(1H,3H)-dione], the half-maximal inhibitory concentration (IC50) turned out to be 4.1 nM.

`O=c1[nH]cc(-c2cc([C@H]3C[C@@H]3c3ccccn3)c3ncc(F)n3n2)c(=O)[nH]1` (racemic) [Example 178, 5-(3-fluoro-8-((1S,2S)-2-(pyridin-2-yl)cyclopropyl)imidazo[1,2-b]pyridazin-6-yl)pyrimidine-2,4(1H,3H)-dione]: the midpoint of inhibition, the IC50, lay at 2.65 nM.

In turn, `O=c1[nH]cc(-c2cc([C@H]3C[C@@H]3c3ccc4cccnc4c3)c3nccn3n2)c(=O)[nH]1` (racemic) [Example 154, 5-(8-((1S,2S)-2-(quinolin-7-yl)cyclopropyl)imidazo[1,2-b]pyridazin-6-yl)pyrimidine-2,4(1H,3H)-dione] had an IC50 of 1.56 nM.

With `O=C(c1ccc([C@H]2C[C@@H]2c2cc(-c3c[nH]c(=O)[nH]c3=O)nn3ccnc23)cc1)N1CC(F)(F)C(F)(F)C1` (racemic) [Example 303, 5-(8-((1S,2S)-2-(4-(3,3,4,4-tetrafluoropyrrolidine-1-carbonyl)phenyl)cyclopropyl)imidazo[1,2-b]pyridazin-6-yl)pyrimidine-2,4(1H,3H)-dione], the 50% inhibitory concentration (IC50) worked out at 7.74 nM.

`O=c1[nH]cc(-c2cc([C@H]3C[C@@H]3c3cnn(C(F)(F)F)c3)c3nccn3n2)c(=O)[nH]1` (racemic) [Example 366, 5-(8-((1S,2S)-2-(1-(trifluoromethyl)-1H-pyrazol-4-yl)cyclopropyl)imidazo[1,2-b]pyridazin-6-yl)pyrimidine-2,4(1H,3H)-dione] came in with a concentration for half-maximal inhibition (IC50) of 6.6 nM.

As for `CNC(=O)c1ccc([C@H]2C[C@@H]2c2cc(-c3c[nH]c(=O)[nH]c3=O)nn3ccnc23)cc1` (racemic) [Example 285, 4-((1S,2S)-2-(6-(2,4-dioxo-1,2,3,4-tetrahydropyrimidin-5-yl)imidazo[1,2-b]pyridazin-8-yl)cyclopropyl)-N-methylbenzamide], inhibition was half-maximal at 1.42 nM (IC50).

As for `N#Cc1ccc([C@H]2C[C@@H]2c2cc(-c3c[nH]c(=O)[nH]c3=O)nn3c(F)cnc23)nc1` (racemic) [Example 151, 6-((1S,2S)-2-(6-(2,4-dioxo-1,2,3,4-tetrahydropyrimidin-5-yl)-3-fluoroimidazo[1,2-b]pyridazin-8-yl)cyclopropyl)nicotinonitrile], the half-maximal inhibitory concentration (IC50) turned out to be 1.36 nM.

In turn, `O=C(c1ccc([C@H]2C[C@@H]2c2cc(-c3c[nH]c(=O)[nH]c3=O)nn3ccnc23)cc1)N1C[C@@H](F)[C@H](F)C1` (racemic) [Example 299, 5-(8-((1S,2S)-2-(4-((3R,4R)-3,4-difluoropyrrolidine-1-carbonyl)phenyl)cyclopropyl)imidazo[1,2-b]pyridazin-6-yl)pyrimidine-2,4(1H,3H)-dione] returned an IC50 of 7.85 nM.

In turn, `CN(C)C(=O)c1ccc([C@H]2C[C@@H]2c2cc(-c3c[nH]c(=O)[nH]c3=O)nn3ccnc23)cc1` (racemic) [Example 288, 4-((1S,2S)-2-(6-(2,4-dioxo-1,2,3,4-tetrahydropyrimidin-5-yl)imidazo[1,2-b]pyridazin-8-yl)cyclopropyl)-N,N-dimethylbenzamide] showed an IC50 of 6.86 nM.

As for `O=C1N(CC(F)(F)F)c2cc([C@H]3C[C@@H]3c3cc(-c4c[nH]c(=O)[nH]c4=O)nn4ccnc34)ccc2C12CC2` (single isomer, unassigned) [Example 391], the IC50 was 1.01 nM.

Consider `NC(=O)c1cccc([C@H]2C[C@@H]2c2cc(-c3c[nH]c(=O)[nH]c3=O)nn3ccnc23)c1` (racemic) [Example 284, 3-((1S,2S)-2-(6-(2,4-dioxo-1,2,3,4-tetrahydropyrimidin-5-yl)imidazo[1,2-b]pyridazin-8-yl)cyclopropyl)benzamide], for which the 50% inhibitory concentration (IC50) was found to be 1.07 nM.

On to `O=c1[nH]cc(-c2cc([C@H]3C[C@@H]3c3ccc(OCC(F)(F)F)cn3)c3nccn3n2)c(=O)[nH]1` (racemic) [Example 363, 5-(8-((1S,2S)-2-(5-(2,2,2-trifluoroethoxy)pyridin-2-yl)cyclopropyl)imidazo[1,2-b]pyridazin-6-yl)pyrimidine-2,4(1H,3H)-dione], for which the IC50 turned out to be 2 nM.

As for `O=c1[nH]cc(-c2cc([C@H]3C[C@@H]3c3ccc(OC(F)(F)F)cc3F)c3nccn3n2)c(=O)[nH]1` (racemic) [Example 280, 5-(8-((1S,2S)-2-(2-fluoro-4-(trifluoromethoxy)phenyl)cyclopropyl)imidazo[1,2-b]pyridazin-6-yl)pyrimidine-2,4(1H,3H)-dione], the IC50 came to 5.97 nM.

In turn, `COC(=O)c1cccc([C@H]2C[C@@H]2c2cc(-c3c[nH]c(=O)[nH]c3=O)nn3ccnc23)c1` (racemic) [Example 282, methyl 3-((1S,2S)-2-(6-(2,4-dioxo-1,2,3,4-tetrahydropyrimidin-5-yl)imidazo[1,2-b]pyridazin-8-yl)cyclopropyl)benzoate] registered an IC50 of 1.81 nM.

The molecule `O=c1[nH]cc(-c2cc([C@H]3C[C@@H]3c3cnn(C(F)F)c3)c3nccn3n2)c(=O)[nH]1` (racemic) [Example 368, 5-(8-((1S,2S)-2-(1-(difluoromethyl)-1H-pyrazol-4-yl)cyclopropyl)imidazo[1,2-b]pyridazin-6-yl)pyrimidine-2,4(1H,3H)-dione] registered an IC50 of 3.73 nM.

In the case of `CC1(C)CCN(C(=O)c2ccc([C@H]3C[C@@H]3c3cc(-c4c[nH]c(=O)[nH]c4=O)nn4ccnc34)cc2)C1` (racemic) [Example 307, 5-(8-((1S,2S)-2-(4-(3,3-dimethylpyrrolidine-1-carbonyl)phenyl)cyclopropyl)imidazo[1,2-b]pyridazin-6-yl)pyrimidine-2,4(1H,3H)-dione], the IC50 amounted to 16.1 nM.

Turning to `O=c1[nH]cc(-c2cc([C@H]3C[C@@H]3c3cnc4ccccc4c3)c3nccn3n2)c(=O)[nH]1` (racemic) [Example 163, 5-(8-((1S,2S)-2-(quinolin-3-yl)cyclopropyl)imidazo[1,2-b]pyridazin-6-yl)pyrimidine-2,4(1H,3H)-dione], half-maximal inhibition (IC50) was put at 2.13 nM.
